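Five concentrations, 48 hours, 96-well plates. TGI denotes the concentration required for complete inhibition of growth.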
Legend:
Test in all cases: DTP human tumour cell line panel, 48 h
[1] = test system: 786-0 renal
[2] = test system: A498 renal
[3] = test system: A549 NSCLC
[4] = test system: ACHN renal
[5] = test system: CAKI-1 renal
[6] = test system: CCRF-CEM leukemia
[7] = test system: COLO 205 colon
[8] = test system: DLD-1 colon
[9] = test system: DMS 114 small cell lung
[10] = test system: DMS 273 small cell lung
[11] = test system: EKVX NSCLC
[12] = test system: HCC-2998 colon
[13] = test system: HCT-116 colon
[14] = test system: HCT-15 colon
[15] = test system: HL-60(TB) leukemia
[16] = test system: HOP-18 NSCLC
[17] = test system: HOP-62 NSCLC
[18] = test system: HOP-92 NSCLC
[19] = test system: HT29 colon
[20] = test system: IGROV1 ovarian
[21] = test system: K-562 leukemia
[22] = test system: KM12 colon
[23] = test system: KM20L2 colon
[24] = test system: LOX IMVI melanoma
[25] = test system: LXFL 529 NSCLC
[26] = test system: M14 melanoma
[27] = test system: M19-MEL melanoma
[28] = test system: MALME-3M melanoma
[29] = test system: MOLT-4 leukemia
[30] = test system: NCI-H226 lung
[31] = test system: NCI-H23 lung
[32] = test system: NCI-H460 lung
[33] = test system: NCI-H522 lung
[34] = test system: OVCAR-3 ovarian
[35] = test system: OVCAR-4 ovarian
[36] = test system: OVCAR-5 ovarian
[37] = test system: OVCAR-8 ovarian
[38] = test system: RPMI-8226 leukemia
[39] = test system: RXF 393 renal
[40] = test system: SF-268 CNS
[41] = test system: SF-295 CNS
[42] = test system: SF-539 CNS
[43] = test system: SK-MEL-2 melanoma
[44] = test system: SK-MEL-28 melanoma
[45] = test system: SK-MEL-5 melanoma
[46] = test system: SK-OV-3 ovarian
[47] = test system: SN12C renal
[48] = test system: SNB-19 CNS
[49] = test system: SNB-75 CNS
[50] = test system: SNB-78 CNS
[51] = test system: SR leukemia
[52] = test system: SW-620 colon
[53] = test system: TK-10 renal
[54] = test system: U251 CNS
[55] = test system: UACC-257 melanoma
[56] = test system: UACC-62 melanoma
[57] = test system: UO-31 renal
[58] = test system: XF 498 CNS
[59] = test system: RXF-631 renal

Measured: TGI

COC1=C(C)C(=O)c2c(cc3c(c2O)C(C)(CCC=C(C)C)C(C)O3)C1=O (stereo unspecified)
34.1 µM: [17]
97 µM: [56]
> 57.2 µM: [14]
> 100 µM: [1] | [4] | [5] | [6] | [7] | [8] | [9] | [11] | [13] | [15] | [18] | [19] | [20] | [21] | [22] | [23] | [24] | [25] | [28] | [29] | [33] | [34] | [35] | [36] | [37] | [38] | [39] | [40] | [42] | [44] | [46] | [50] | [51] | [52] | [53] | [54] | [55] | [57] | [58]
> 78.8 µM: [12]
68.5 µM: [31]
> 60.8 µM: [43]
27.2 µM: [32]
37.5 µM: [30]
> 61.8 µM: [47]
39.8 µM: [3]
27.4 µM: [45]
> 86.4 µM: [10]
35 µM: [2]
34.5 µM: [48]
52.7 µM: [41]
37.1 µM: [49]
> 78.7 µM: [16]
55.7 µM: [26]
30.1 µM: [27]

C[C@]12CCC(=O)CC1CCCC2=O (stereo partly specified)
> 100 µM: [1] | [2] | [3] | [5] | [6] | [7] | [8] | [9] | [10] | [11] | [12] | [13] | [14] | [15] | [17] | [18] | [19] | [20] | [21] | [22] | [24] | [25] | [26] | [27] | [28] | [29] | [31] | [32] | [33] | [34] | [35] | [37] | [38] | [39] | [59] | [40] | [41] | [42] | [43] | [44] | [45] | [46] | [47] | [48] | [49] | [50] | [52] | [53] | [54] | [55] | [56] | [57] | [58]

— PubChem BioAssay (NCI)
